PubChem BioAssay (NCI)
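A five-concentration, 48-hour dose response in 96-well plates underlies each endpoint, interpolated linearly between surrounding concentrations. GI50 marks 50% less growth. TGI denotes the concentration required for complete inhibition of growth.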

How the values were obtained:
Assay in all cases: inhibition of tumour cell growth, NCI panel, 48 h
SF-539 CNS = system: SF-539 CNS
OVCAR-5 ovarian = system: OVCAR-5 ovarian
MDA-MB-435 = system: MDA-MB-435
SR leukemia = system: SR leukemia
HCC-2998 colon = system: HCC-2998 colon
OVCAR-8 ovarian = system: OVCAR-8 ovarian
SNB-75 CNS = system: SNB-75 CNS
UACC-62 melanoma = system: UACC-62 melanoma
SN12C renal = system: SN12C renal
MOLT-4 leukemia = system: MOLT-4 leukemia
786-0 renal = system: 786-0 renal
RPMI-8226 leukemia = system: RPMI-8226 leukemia
A549 NSCLC = system: A549 NSCLC
BT-549 breast = system: BT-549 breast
NCI/ADR-RES ovarian = system: NCI/ADR-RES ovarian
HOP-92 NSCLC = system: HOP-92 NSCLC
M14 melanoma = system: M14 melanoma
NCI-H226 lung = system: NCI-H226 lung
CAKI-1 renal = system: CAKI-1 renal
UO-31 renal = system: UO-31 renal
NCI-H460 lung = system: NCI-H460 lung
SK-MEL-28 melanoma = system: SK-MEL-28 melanoma
RXF 393 renal = system: RXF 393 renal
IGROV1 ovarian = system: IGROV1 ovarian
NCI-H23 lung = system: NCI-H23 lung
SF-268 CNS = system: SF-268 CNS
MALME-3M melanoma = system: MALME-3M melanoma
SW-620 colon = system: SW-620 colon
HS 578T breast = system: HS 578T breast
PC-3 prostate = system: PC-3 prostate
HCT-116 colon = system: HCT-116 colon
COLO 205 colon = system: COLO 205 colon
HCT-15 colon = system: HCT-15 colon
HT29 colon = system: HT29 colon
MCF7 breast = system: MCF7 breast
T-47D breast = system: T-47D breast
CCRF-CEM leukemia = system: CCRF-CEM leukemia
SK-MEL-2 melanoma = system: SK-MEL-2 melanoma
LOX IMVI melanoma = system: LOX IMVI melanoma
EKVX NSCLC = system: EKVX NSCLC
UACC-257 melanoma = system: UACC-257 melanoma
NCI-H522 lung = system: NCI-H522 lung
TK-10 renal = system: TK-10 renal
HL-60(TB) leukemia = system: HL-60(TB) leukemia
SK-MEL-5 melanoma = system: SK-MEL-5 melanoma
HOP-62 NSCLC = system: HOP-62 NSCLC
K-562 leukemia = system: K-562 leukemia
KM12 colon = system: KM12 colon
A498 renal = system: A498 renal
ACHN renal = system: ACHN renal
DU-145 prostate = system: DU-145 prostate
OVCAR-4 ovarian = system: OVCAR-4 ovarian
U251 CNS = system: U251 CNS
SNB-19 CNS = system: SNB-19 CNS
OVCAR-3 ovarian = system: OVCAR-3 ovarian
SK-OV-3 ovarian = system: SK-OV-3 ovarian
MDA-MB-231 breast = system: MDA-MB-231 breast
SF-295 CNS = system: SF-295 CNS

CC1=C(c2cccc(O)c2)[C@H](c2ccc(OCCN3CC(CF)C3)cc2)Oc2ccc(O)cc21
GI50 (SF-539 CNS): 5.78 µM
TGI (SF-539 CNS): 18.3 µM
GI50 (OVCAR-5 ovarian): 12.4 µM
TGI (OVCAR-5 ovarian): 25 µM
GI50 (MDA-MB-435): 12 µM
TGI (MDA-MB-435): 24.3 µM
GI50 (SR leukemia): 3.76 µM
TGI (SR leukemia): 36.2 µM
GI50 (HCC-2998 colon): 3.84 µM
TGI (HCC-2998 colon): 15.4 µM
GI50 (OVCAR-8 ovarian): 12.9 µM
TGI (OVCAR-8 ovarian): 32.6 µM
GI50 (SNB-75 CNS): 10.5 µM
TGI (SNB-75 CNS): 22.3 µM
GI50 (UACC-62 melanoma): 10.4 µM
TGI (UACC-62 melanoma): 22.6 µM
GI50 (SN12C renal): 7.42 µM
TGI (SN12C renal): 21.3 µM
GI50 (MOLT-4 leukemia): 3.59 µM
TGI (MOLT-4 leukemia): 16 µM
GI50 (786-0 renal): 5.15 µM
TGI (786-0 renal): 18.9 µM
GI50 (RPMI-8226 leukemia): 8.11 µM
TGI (RPMI-8226 leukemia): 27.1 µM
GI50 (A549 NSCLC): 7.81 µM
TGI (A549 NSCLC): 23.8 µM
GI50 (BT-549 breast): 10.5 µM
TGI (BT-549 breast): 23.2 µM
GI50 (NCI/ADR-RES ovarian): 15 µM
TGI (NCI/ADR-RES ovarian): 31 µM
GI50 (HOP-92 NSCLC): 2.52 µM
TGI (HOP-92 NSCLC): 13.8 µM
GI50 (M14 melanoma): 2.93 µM
TGI (M14 melanoma): 9.45 µM
GI50 (NCI-H226 lung): 10.7 µM
TGI (NCI-H226 lung): 28.2 µM
GI50 (CAKI-1 renal): 3.13 µM
TGI (CAKI-1 renal): 12.9 µM
GI50 (UO-31 renal): 3.56 µM
TGI (UO-31 renal): 16 µM
GI50 (NCI-H460 lung): 4.94 µM
TGI (NCI-H460 lung): 18.2 µM
GI50 (SK-MEL-28 melanoma): 5.3 µM
TGI (SK-MEL-28 melanoma): 18 µM
GI50 (RXF 393 renal): 3.46 µM
TGI (RXF 393 renal): 12.1 µM
GI50 (IGROV1 ovarian): 4.42 µM
TGI (IGROV1 ovarian): 16.6 µM
GI50 (NCI-H23 lung): 11.2 µM
TGI (NCI-H23 lung): 25.1 µM
GI50 (SF-268 CNS): 6.28 µM
TGI (SF-268 CNS): 21.6 µM
GI50 (MALME-3M melanoma): 3.23 µM
TGI (MALME-3M melanoma): 13.3 µM
GI50 (SW-620 colon): 7.28 µM
TGI (SW-620 colon): 20.9 µM
GI50 (HS 578T breast): 5.12 µM
TGI (HS 578T breast): 26.4 µM
GI50 (PC-3 prostate): 5.8 µM
TGI (PC-3 prostate): 20.9 µM
GI50 (HCT-116 colon): 4.46 µM
TGI (HCT-116 colon): 17.5 µM
GI50 (COLO 205 colon): 6.34 µM
TGI (COLO 205 colon): 23.1 µM
GI50 (HCT-15 colon): 6.09 µM
TGI (HCT-15 colon): 19.6 µM
GI50 (HT29 colon): 3.52 µM
TGI (HT29 colon): 12.8 µM
GI50 (MCF7 breast): 0.0194 µM
TGI (MCF7 breast): 13.4 µM
GI50 (T-47D breast): 0.0747 µM
TGI (T-47D breast): 19.9 µM
GI50 (CCRF-CEM leukemia): 4.72 µM
TGI (CCRF-CEM leukemia): 21.2 µM
GI50 (SK-MEL-2 melanoma): 7.2 µM
TGI (SK-MEL-2 melanoma): 20.9 µM
GI50 (LOX IMVI melanoma): 2.23 µM
TGI (LOX IMVI melanoma): 5.16 µM
GI50 (EKVX NSCLC): 9.61 µM
TGI (EKVX NSCLC): 21.7 µM
GI50 (UACC-257 melanoma): 4.98 µM
TGI (UACC-257 melanoma): 18.2 µM
GI50 (NCI-H522 lung): 16 µM
TGI (NCI-H522 lung): 32.8 µM
GI50 (TK-10 renal): 12 µM
TGI (TK-10 renal): 25.1 µM
GI50 (HL-60(TB) leukemia): 4.39 µM
TGI (HL-60(TB) leukemia): 22.2 µM
GI50 (SK-MEL-5 melanoma): 3.58 µM
TGI (SK-MEL-5 melanoma): 12.8 µM
GI50 (HOP-62 NSCLC): 11 µM
TGI (HOP-62 NSCLC): 27.5 µM
GI50 (K-562 leukemia): 3.33 µM
TGI (K-562 leukemia): 17.9 µM
GI50 (KM12 colon): 6.44 µM
TGI (KM12 colon): 21.7 µM
GI50 (A498 renal): 1.68 µM
TGI (A498 renal): 9.66 µM
GI50 (ACHN renal): 6.2 µM
TGI (ACHN renal): 18.6 µM
GI50 (DU-145 prostate): 4.18 µM
TGI (DU-145 prostate): 15 µM
GI50 (OVCAR-4 ovarian): 9.62 µM
TGI (OVCAR-4 ovarian): 21.7 µM
GI50 (U251 CNS): 4.19 µM
TGI (U251 CNS): 18.1 µM
GI50 (SNB-19 CNS): 10.1 µM
TGI (SNB-19 CNS): 22.1 µM
GI50 (OVCAR-3 ovarian): 10.8 µM
TGI (OVCAR-3 ovarian): 24.4 µM
GI50 (SK-OV-3 ovarian): 6.26 µM
TGI (SK-OV-3 ovarian): 20.6 µM
GI50 (MDA-MB-231 breast): 4.87 µM
TGI (MDA-MB-231 breast): 17.4 µM
GI50 (SF-295 CNS): 4.27 µM
TGI (SF-295 CNS): 16.5 µM
